Each block holds one compound with its values, some of them ahead of it.
Assays:
[1] = Drug interaction trials: effect of dolutegravir on pharmacokinetics of coadministered drugs
From the text: (§1) These recommendations are based on either drug interaction trials of individual components or predicted interactions due to the expected magnitude of interaction and potential for serious adverse events or loss of efficacy.

[2] = human, in vivo
[3] = human, in vivo; remark: listed apart in the source
[4] = Drug interaction trials: effect of rilpivirine on pharmacokinetics of coadministered drugs; conditions: No Effect = 1.00
[5] = Established and other potentially significant drug interactions with JULUCA (effect on concentration); assay type: in vivo, human; conditions: based on drug interaction trials or predicted interactions
From the text: as §1

[6] = Solubilities of non-micronized dolutegravir sodium in various solvents at 25° C.; assay type: physicochemical
[7] = Pre-dose concentrations of DTG and RPV at Weeks 4, 24 and 48 or withdrawal in participants switching to DTG + RPV; assay type: in vivo, human
Method: (§2) First set of participants (DTG 50 mg) received DIG 50 mg+RPV 25 mg together once daily, with a meal, in an open-label fashion up to Week 52 during early switch phase. Second set of participants (RPV 25 mg) also received DTG 50 mg+RPV 25 mg together once daily, with a meal, in an open-label fashion up to Week 52 during early switch phase.
(§3) First set of participants (DTG 50 mg) received DTG 50 mg+RPV 25 mg together once daily, with a meal, in an open-label fashion up to Week 52 during early switch phase. Second set of participants (RPV 25 mg) also received DTG 50 mg+RPV 25 mg together once daily, with a meal, in an open-label fashion up to Week 52 during early switch phase.

[8] = Pre-dose concentrations of DTG and RPV at Weeks 2, 4 and 8 in the first 20 participants who switch from EFV or NVP to DTG + RPV; assay type: in vivo, human
Method: as §2, §3

[9] = Solubilities of rilpivirine hydrochloride in various aqueous media; assay type: physicochemical
[10] = metformin 500 mg twice daily, dolutegravir 50 mg once daily
[11] = metformin 500 mg twice daily, dolutegravir 50 mg twice daily

Compound: CC(=O)Nc1ccc(O)cc1 [Acetaminophen]
AUC of coadministered drug, geometric mean ratio with/without EDURANT [2]: 0.91 | Cmax of coadministered drug, geometric mean ratio with/without EDURANT [2]: 0.97 | Rilpivirine AUC, geometric mean ratio with/without coadministered drug [3]: 1.16 | Rilpivirine Cmax, geometric mean ratio with/without coadministered drug [3]: 1.09 | Rilpivirine Cmin, geometric mean ratio with/without coadministered drug [3]: 1.26

Compound: C#C[C@]1(O)CC[C@H]2[C@@H]3CCc4cc(O)ccc4[C@H]3CC[C@@]21C [Ethinyl estradiol]
Cmax of coadministered drug, geometric mean ratio with/without dolutegravir ([1]; No Effect = 1.00): 0.99 | Cτ or C24 of coadministered drug, geometric mean ratio with/without dolutegravir ([1]; No Effect = 1.00): 1.02 | AUC of coadministered drug, geometric mean ratio with/without EDURANT [2]: 1.14 | Cmax of coadministered drug, geometric mean ratio with/without EDURANT [2]: 1.17 | Cmin of coadministered drug, geometric mean ratio with/without EDURANT [4]: 1.09

Compound: CN(C)C(=N)N=C(N)N [Metformin]
AUC of coadministered drug, geometric mean ratio with/without dolutegravir [1, 10]: 1.79 | Cmax of coadministered drug, geometric mean ratio with/without dolutegravir [1, 10]: 1.66 | AUC of coadministered drug, geometric mean ratio with/without dolutegravir [1, 11]: 2.45 | Cmax of coadministered drug, geometric mean ratio with/without dolutegravir [1, 11]: 2.11 | AUC of coadministered drug, geometric mean ratio with/without EDURANT [2]: 0.97 | Cmax of coadministered drug, geometric mean ratio with/without EDURANT [2]: 1.02 | Effect on Concentration of the concomitant drug [5]: ↑Metformin

Compound: C[C@@H]1CCO[C@H]2Cn3cc(C(=O)NCc4ccc(F)cc4F)c(=O)c([O-])c3C(=O)N12.[Na+] [dolutegravir sodium, sodium (4R,12aS)-9-{[(2,4-difluorophenyl)methyl]carbamoyl}-4-methyl-6,8-dioxo-3,4,6,8,12,12a-hexahydro-2H-pyrido[1′,2′:4,5]pyrazino[2,1-b][1,3]oxazin-7-olate]
Descriptor (solubility) ([6]; FaSSIF, pH 6.5, 25° C.): Very slightly soluble | Descriptor (solubility) ([6]; FaSSIF, pH 6.5, 25° C., listed as Non-micronized dolutegravir sodium): very slightly soluble | Descriptor (solubility) ([6]; FeSSIF, pH 5.0, 25° C.): Very slightly soluble | Descriptor (solubility) ([6]; FeSSIF, pH 5.0, 25° C., listed as Non-micronized dolutegravir sodium): very slightly soluble | Descriptor (solubility) ([6]; SGF, pH 1.2, 25° C.): Practically insoluble | Descriptor (solubility) ([6]; SGF, pH 1.2, 25° C., listed as Non-micronized dolutegravir sodium): practically insoluble | Descriptor (solubility) ([6]; Water, solution pH 10.1, 25° C.): Slightly soluble | Descriptor (solubility) ([6]; Water, solution pH 10.1, 25° C., listed as Dolutegravir sodium): slightly soluble | solubility at 8 h ([6]; simulated gastric fluid, thermodynamic from solid, SGF, pH 1.2, 25° C., 8 hours): 21 µg/mL | solubility at 4 h ([6]; thermodynamic from solid, FaSSIF, pH 6.5, 25° C., 4 hours): 239 µg/mL | solubility at 4 h ([6]; thermodynamic from solid, FeSSIF, pH 5.0, 25° C., 4 hours): 170 µg/mL | solubility at 4 h ([6]; thermodynamic from solid, Water, solution pH 10.1, 25° C., equilibrium after 4 hours): 3180 µg/mL | Pre-dose concentration, Mean ± Standard Deviation ([7]; Example 3 (Table 10), Week 4): 1581.06 ± 1146.860 µg/L | Pre-dose concentration, Mean ± Standard Deviation ([7]; Example 3 (Table 10), Week 24): 1835.68 ± 1120.539 µg/L | Pre-dose concentration, Mean ± Standard Deviation ([7]; Example 3 (Table 10), Week 48): 1915.11 ± 1304.238 µg/L | Pre-dose concentration, Mean ± Standard Deviation ([7]; Example 5 (Table 13), Week 4): 1578.88 ± 1170.967 µg/L | Pre-dose concentration, Mean ± Standard Deviation ([7]; Example 5 (Table 13), Week 24): 1447.23 ± 917.677 µg/L | Pre-dose concentration, Mean ± Standard Deviation ([7]; Example 5 (Table 13), Week 48): 1384.36 ± 889.829 µg/L | Pre-dose concentration, Mean ± Standard Deviation ([8]; Example 3 (Table 10), Week 2): 821.25 ± 574.607 µg/L | Pre-dose concentration, Mean ± Standard Deviation ([8]; Example 3 (Table 10), Week 4): 994.00 ± 581.201 µg/L | Pre-dose concentration, Mean ± Standard Deviation ([8]; Example 3 (Table 10), Week 8): 1561.34 ± 1096.381 µg/L | Pre-dose concentration, Mean ± Standard Deviation ([8]; Example 5 (Table 13), Week 2): 834.58 ± 639.622 µg/L | Pre-dose concentration, Mean ± Standard Deviation ([8]; Example 5 (Table 13), Week 4): 1218.23 ± 842.703 µg/L | Pre-dose concentration, Mean ± Standard Deviation ([8]; Example 5 (Table 13), Week 8): 1472.50 ± 818.774 µg/L

Compound: Cc1cc(/C=C/C#N)cc(C)c1Nc1ccnc(Nc2ccc(C#N)cc2)n1.Cl [rilpivirine hydrochloride, 4-[[4-[[4-[(E)-2-cyanoethenyl]-2,6-dimethylphenyl]amino]-2-pyrimidinyl]amino]benzonitrile hydrochloride]
Pre-dose concentration, Mean ± Standard Deviation ([7]; Example 3 (Table 10), Week 4): 92.046 ± 138.2880 µg/L | Pre-dose concentration, Mean ± Standard Deviation ([7]; Example 3 (Table 10), Week 24): 87.875 ± 39.1412 µg/L | Pre-dose concentration, Mean ± Standard Deviation ([7]; Example 3 (Table 10), Week 48): 95.405 ± 48.2978 µg/L | Pre-dose concentration, Mean ± Standard Deviation ([7]; Example 5 (Table 13), Week 4): 79.504 ± 38.2305 µg/L | Pre-dose concentration, Mean ± Standard Deviation ([7]; Example 5 (Table 13), Week 24): 90.207 ± 46.3022 µg/L | Pre-dose concentration, Mean ± Standard Deviation ([7]; Example 5 (Table 13), Week 48): 91.799 ± 47.1371 µg/L | Descriptor (solubility) ([9]; 0.01N HCl, pH 2.0): Practically insoluble (Practically insoluble or Insoluble: Parts of solvent required for 1 part of solute: greater than or equal to 10,000) | Solubility ([9]; 0.01N HCl, pH 2.0, 20° C.): 0.003 g/100 mL | Descriptor (solubility) ([9]; 0.1N HCl, pH 1.1): Practically insoluble (Practically insoluble or Insoluble: Parts of solvent required for 1 part of solute: greater than or equal to 10,000) | Solubility ([9]; 0.1N HCl, pH 1.1, 20° C.): <0.001 g/100 mL | Descriptor (solubility) ([9]; 0.1N NaOH, pH 12.9): Practically insoluble (Practically insoluble or Insoluble: Parts of solvent required for 1 part of solute: greater than or equal to 10,000) | Solubility ([9]; 0.1N NaOH, pH 12.9, 20° C.): <0.001 g/100 mL | Descriptor (solubility) ([9]; Borate-KCl, pH 8.9): Practically insoluble (Practically insoluble or Insoluble: Parts of solvent required for 1 part of solute: greater than or equal to 10,000) | Solubility ([9]; Borate-KCl, pH 8.9, 20° C.): <0.001 g/100 mL | Descriptor (solubility) ([9]; Citrate-HCl, pH 2.0): Practically insoluble (Practically insoluble or Insoluble: Parts of solvent required for 1 part of solute: greater than or equal to 10,000) | Solubility ([9]; Citrate-HCl, pH 2.0, 20° C.): <0.001 g/100 mL | Descriptor (solubility) ([9]; Citrate-NaOH, pH 5.0): Practically insoluble (Practically insoluble or Insoluble: Parts of solvent required for 1 part of solute: greater than or equal to 10,000) | Solubility ([9]; Citrate-NaOH, pH 5.0, 20° C.): <0.001 g/100 mL | Descriptor (solubility) ([9]; Phosphate Buffer, pH 6.9): Practically insoluble (Practically insoluble or Insoluble: Parts of solvent required for 1 part of solute: greater than or equal to 10,000) | Solubility ([9]; Phosphate Buffer, pH 6.9, 20° C.): <0.001 g/100 mL | Descriptor (solubility) ([9]; Phosphate-NaOH, pH 11.9): Practically insoluble (Practically insoluble or Insoluble: Parts of solvent required for 1 part of solute: greater than or equal to 10,000) | Solubility ([9]; Phosphate-NaOH, pH 11.9, 20° C.): <0.001 g/100 mL | Descriptor (solubility) ([9]; Water, solution pH 2.2): Practically insoluble (Practically insoluble or Insoluble: Parts of solvent required for 1 part of solute: greater than or equal to 10,000) | Solubility ([9]; Water, solution pH 2.2, 20° C.): 0.001 g/100 mL | Descriptor (solubility) ([9]; aqueous media (Table 16)): practically insoluble | Pre-dose concentration, Mean ± Standard Deviation ([8]; Example 3 (Table 10), Week 2): 65.360 ± 31.2965 µg/L | Pre-dose concentration, Mean ± Standard Deviation ([8]; Example 3 (Table 10), Week 4): 67.374 ± 27.5663 µg/L | Pre-dose concentration, Mean ± Standard Deviation ([8]; Example 3 (Table 10), Week 8): 77.416 ± 37.7129 µg/L | Pre-dose concentration, Mean ± Standard Deviation ([8]; Example 5 (Table 13), Week 2): 57.342 ± 29.5436 µg/L | Pre-dose concentration, Mean ± Standard Deviation ([8]; Example 5 (Table 13), Week 4): 78.338 ± 31.4825 µg/L | Pre-dose concentration, Mean ± Standard Deviation ([8]; Example 5 (Table 13), Week 8): 79.652 ± 40.7546 µg/L

More lines, now with the values ahead:

Cmax of coadministered drug, geometric mean ratio with/without dolutegravir ([1]; No Effect = 1.00): 0.89 | Cτ or C24 of coadministered drug, geometric mean ratio with/without dolutegravir ([1]; No Effect = 1.00): 0.93
Compound: C#C[C@]1(O)CC[C@H]2[C@@H]3CCC4=CC(=NO)CC[C@@H]4[C@H]3CC[C@@]21CC (mixture of isomers) [Norelgestromin]

Cmax of coadministered drug, geometric mean ratio with/without dolutegravir ([1]; No Effect = 1.00): 1.03 | Cτ or C24 of coadministered drug, geometric mean ratio with/without dolutegravir ([1]; No Effect = 1.00): 1.06
Compound: COC(=O)N[C@H](C(=O)N1CCC[C@H]1c1nc(-c2ccc(-c3ccc(-c4c[nH]c([C@@H]5CCCN5C(=O)[C@@H](NC(=O)OC)C(C)C)n4)cc3)cc2)c[nH]1)C(C)C [Daclatasvir]

AUC of coadministered drug, geometric mean ratio with/without EDURANT [2]: 0.86 | Cmax of coadministered drug, geometric mean ratio with/without EDURANT [2]: 0.86 | Effect on Concentration of Rilpivirine ([5]; concomitant drug with JULUCA): ↓Rilpivirine | Rilpivirine AUC, geometric mean ratio with/without coadministered drug [3]: 0.60 | Rilpivirine Cmax, geometric mean ratio with/without coadministered drug [3]: 0.60 | Rilpivirine Cmin, geometric mean ratio with/without coadministered drug [3]: 0.67
Compound: COc1ccc2[nH]c([S+]([O-])Cc3ncc(C)c(OC)c3C)nc2c1 (stereo not drawn) [Omeprazole]

AUC of coadministered drug, geometric mean ratio with/without EDURANT [2]: 0.97 | Cmax of coadministered drug, geometric mean ratio with/without EDURANT [2]: 0.93 | Rilpivirine AUC, geometric mean ratio with/without coadministered drug [3]: 0.98 | Rilpivirine Cmax, geometric mean ratio with/without coadministered drug [3]: 0.92 | Rilpivirine Cmin, geometric mean ratio with/without coadministered drug [3]: 1.04
Compound: CCCc1nn(C)c2c(=O)[nH]c(-c3cc(S(=O)(=O)N4CCN(C)CC4)ccc3OCC)nc12 [Sildenafil]

Reference: US12011506B2, “Combination and uses and treatments thereof” (priority 2017, dated 2024)
